{"source": "paper PMC10747661", "about": "“Preparation of trans-Crocetin with High Solubility, Stability, and Oral Bioavailability by Incorporation into Three Types of Cyclodextrins” (Pharmaceutics, 2023)", "key": {"Solubility determination": {"assay": "Solubility determination", "type": "physicochemical", "details": "thermodynamic from solid, 25 °C", "description": "Drug solubility at 25 ± 0.5 °C was determined in water and phosphate buffer (pH 6.8). Excesses of CRT and each IC were added to each fluid and placed in a thermostatic water bath in the dark at 25 ± 0.5 °C with a constant shaking rate of 100 rpm for 72 h. After the equilibrium state was reached, the solutions were centrifuged for 15 min, and 2 mL of the supernatant was diluted with an appropriate amount of methanol. Drug concentrations were determined using HPLC."}, "[1]": {"assay": "Effect of storage on stability (heat, light, moisture)", "type": "physicochemical", "details": "60 ± 0.5 °C, 10 days", "description": "All samples were sealed in transparent glass bottles and divided into three groups, each containing CRT/α-CD IC (500 mg), CRT/HP-β-CD IC (500 mg), CRT/γ-CD IC (500 mg), and intact CRT (500 mg). The first group was stored at 60 ± 0.5 °C for 10 days. The second group was stored at 25 ± 0.5 °C with a light intensity of 4500 ± 500 lx for 10 days. The third group was stored at 25 ± 0.5 °C with 75% relative humidity for 10 days. The CRT contents were sampled and measured on days 0, 5, and 10. Each test was repeated at least three times."}, "[2]": {"set-up": "method as in PMID 16131146", "details": "mice, oral, cited from earlier work"}, "[3]": {"set-up": "method as in PMID 21112749, PMID 21398065", "details": "humans, CRT or saffron tea orally, cited from earlier work"}, "[4]": {"assay": "Dissolution test (USP paddle method)", "type": "physicochemical", "details": "phosphate buffer pH 6.8, 900 mL, 100 rpm, 37 °C", "description": "The dissolution of CRT, PMs, and ICs was evaluated using the USP (version 26) paddle method with a dissolution tester (Tianjin University Electronics Co., Ltd., Tianjin, China). The dissolution medium was phosphate buffer (pH 6.8, 900 mL); the paddles were rotated at 100 rpm at 37.0 ± 0.5 °C. A sample volume of 5 mL was withdrawn from the dissolution medium at predetermined sampling points, filtered using a […] microporous filter membrane, and analyzed via HPLC. All dissolution tests were performed in triplicate."}, "[5]": {"assay": "Pharmacokinetics study after intragastric administration", "type": "in vivo", "details": "Sprague-Dawley, rat, plasma, po, SD rats, 20 mg/kg intragastric, n = 6", "description": "Twenty-four SD rats were randomly divided into four groups and administered CRT/α-CD IC, CRT/HP-β-CD IC, CRT/γ-CD IC, or intact CRT. All rats were fasted for 12 h and only provided water before experiments. All samples at a dose of 20 mg/kg body weight were administered intragastrically. Blood samples (0.4 mL) were collected from the orbital venous plexus at predetermined time points (0.083, 0.167, 0.25, 0.5, 1, 2, 4, 6, 8, 12, and 24 h) into tubes containing heparin sodium. The blood samples were centrifuged immediately at 4000 rpm for 15 min; the supernatant layer of plasma was separated and stored at 4 °C for 24 h. CRT in plasma was extracted with 600 μL methanol with an internal standard of 10 μL ATRA from 200 μL plasma samples and centrifuged at 10,000 rpm for 15 min at 4 °C. The supernatant layer was transferred to a new tube, concentrated to remove solvents under the LSE-1K vacuum centrifuge concentrator (JTLIANGYOU, Changzhou, China), and redissolved in 200 μL of methanol for analysis. The concentration of CRT was determined using an HPLC (Waters HPLC system consisting of a 2695–2487 UV detector, Milford, MA, USA) using a COSMOSIL-C18 (150 mm × 4.6 mm, 5 μm) column with a detection wavelength of 424 nm. The injection volume was 20 μL, the column temperature was 35 °C, the mobile phase was methanol with water and glacial acetic acid in a ratio (v:v:v) of 92:7.7:0.3, and the flow rate was 1 mL/min. The pharmacokinetic parameters were calculated using DAS 2.0. Relative bioavailability percentage was calculated as follows:Relative bioavailability (%) = (AUC0–∞ IC/AUC0–∞ CRT) × 100 (2)"}}, "note": "Like-named read-outs stand apart in the source and are kept apart here."}
{"smiles": "CC(/C=C/C=C(\\C)C(=O)O)=C\\C=C\\C=C(C)\\C=C\\C=C(/C)C(=O)O", "note": "[CRT, Crocetin]", "values": [{"measurement": "solubility at 72 h", "setting": "Solubility determination; phosphate buffer, pH 6.86, aqueous buffer, buffer salt, read-out: Solubility of CRT in pH6.86 Buffer Salt", "result": "1.84 ± 0.11", "unit": "µg/mL"}, {"measurement": "solubility at 72 h", "setting": "Solubility determination; water, read-out: Solubility of CRT in H2O", "result": "1.23 ± 0.07", "unit": "µg/mL"}, {"measurement": "relative content (retention) of CRT after thermal treatment", "setting": "[1]", "result": 80, "unit": "%"}, {"measurement": "time of highest plasma concentration", "setting": "[2]; dose of 117.2 mg/mL", "result": "approximately 2 h"}, {"measurement": "highest plasma concentration of CRT", "setting": "[2]", "result": "1249.3 ± 788.1", "unit": "ng/mL"}, {"measurement": "concentrations of CRT in the blood", "setting": "[3]; based on the dose", "result": "100.9 to 279.7", "unit": "ng/mL"}, {"measurement": "Tmax", "setting": "[3]", "result": "approximately 4.6 h"}, {"measurement": "cumulative dissolution rate at 180 min", "setting": "[4]", "result": 13, "unit": "%"}, {"measurement": "AUC(0-inf)", "setting": "[5]", "result": "2660 ± 196", "unit": "ng·h/mL"}, {"measurement": "Cmax", "setting": "[5]", "result": "545 ± 23", "unit": "ng/mL"}, {"measurement": "Tmax", "setting": "[5]", "result": 2, "unit": "h"}, {"measurement": "half-life", "setting": "[5]", "result": "2.06 ± 0.237", "unit": "h"}, {"measurement": "AUC(0-t)", "setting": "[5]; read-out: AUC0–12", "result": "2410 ± 163", "unit": "ng·h/mL"}, {"measurement": "MRT last", "setting": "[5]; read-out: MRT0–12", "result": "3.03 ± 0.082", "unit": "h"}]}
